Test results reported in patent publication US8207209B2, “Methods of inhibiting viral infection” (priority 2007, dated 2012).

System: Ebola virus
Set-up: species or system mice
Settings: mouse, in vivo

Row | SMILES | protection | effectiveness of single dose 4 days after challenge
1 | Cc1cc(NCCCN(C)C)c2ccc3c(ccc4c(NCCCN(C)C)cc(C)nc43)c2n1.Cl.Cl.Cl.Cl [Compound 365, Quino[8,7-h]quinoline-1,7-diamine,N,N′-bis[3-(dimethylamino)propyl]-3,9-dimethyl-tetrahydrochloride] | 100% | –
2 | N=C(N)c1ccc2oc(C=Cc3nc4ccc(C(=N)N)cc4[nH]3)cc2c1 [Compound 723, 2-[2-(5-carbamimidoyl-benzofuran-2-yl)-vinyl]-3H-benzoimidazole-5-carboxamidine] | – | effectiveness
